The test system of one data set is Tolypocladium sp. T1. Nature of the data set: Antifungal test against T1 in PDB / PDB-N media (fresh or 5-day-old T1 broth). The following applies: for effect of supplemental NaNO3 in test medium on antifungal efficacy: against T1, PDB-N = PDB plus 2 g/L NaNO3; for sensitivity of T1 to antifungal activity, normal versus NaNO3-supplemented medium: freshly prepared media, 3-day test window; for resistance of T1 culture: test medium prepared from 5-day-old T1 culture broth, non-NaNO3-supplemented. Format: cell-based. The source says: (§1) Media types: PDB (potato dextrose broth); PDB-N(PDB plus 2 g/L NaNO3); PDB 8:2 (mixture of centrifuged broth of T1 grown in PDB for 5 days with fresh PDB at the ratio of 8:2); PDB-N 8:2 (mixture of centrifuged broth of T1 grown in PDB-N for 5 days with fresh PDB at the ratio of 8:2).
(§2) This prompted us to ask the question what effect the addition of the shikimate analogue moiety had on the bioactivities of compounds 8, 9, 12, and the other nucleophilic substances that we tested. A panel of fungi including four Tolypocladium spp. (T1-T4), four Penicillium spp. (P1-P4) and Aspergillus niger (A1) were selected for assessment. […] To test the capacity of 11 to block the toxicity of 13 in real time, fungal cultures were preincubated with 11 and then treated with varying doses of 13. This regimen of preadministering 11 afforded up to an 8-fold decrease in the MIC of 13 (FIG. 15A). […] We had also noted that the addition of NaNO3 to the culture medium thoroughly abolished the formation of 10 and 11. […] Whereas previously reported resistance mechanisms involving antibiotic modification depended on the enzymatic modification of target substrates, fungal metabolites 10 and 11 functioned as electrophilic warheads that were reactive to a wide variety of natural and synthetic organic substances. The actions of these metabolites serve to limit the deleterious effects of antibiotics/toxins against their microbial targets.
The effects of compounds on fungal growth of fungi were tested using the method described in the NCCLS M38-A guidelines with following modifications. Fungi were cultured on PDA plates (potato dextrose agar, Becton Dickinson and Company) at 25° C. for 6-10 days. The spores/mycelia were disrupted by mechanical agitation and diluted in RPMI 1640 medium (Sigma Chemical Corporation) buffered to pH 7.0 with MOPS (0.165 M, Sigma). Test compounds were prepared in DMSO or EtOH at stock concentrations of 10 mM before being serially diluted in 50 μL RPMI 1640 plus MOPS medium for testing. Aliquots of spore suspension were added to the medium containing the diluted compounds or vehicle (<1% by vol.). After 72 h of incubation at 25° C., the optical densities of fungi were measured using a microplate reader (Infinite M200, Tecan Group Ltd.). The minimum inhibitory concentration (MIC) for growth was defined as the lowest concentration causing prominent growth reduction (>80%). The RPMI 1640 medium was replaced by PDB medium or PDB-N(PDB with 2 g/L NaNO3) for the indicated antifungal tests.

Data set [1] can be described thus: Stability / isomerization in solvents. The class given is physicochemical. Conditions: for stability in solvents: CH2Cl2, CHCl3, MeOH, and EtOH at room temperature; for stability on prolonged storage: in alcohol over several weeks. From the text:
The resulting mixture was purified on HPLC yielding 4 and its diastereomer 5. […] The ^1H and ^13C NMR data of 4 and 5 were almost identical (Tables S2 and S3 of the appendix of U.S. Provisional Patent Application 62/295,343). […] Thus, the absolute configuration of C-3′-C-5′ was deduced as 3'S,4'S,5'S, opposite to that of 4.

Data set [2] is described as follows: Thiol neutralization on pig skin (LCMS). Conditions: with spermine in 50% propylene glycol, 2-phenylethanethiol, 10 min. The method, then: After the Pericosine composition was applied to the thiol on the pig skin and allowed to react for 10 minutes, an eluate from the treated area was analyzed with LCMS. Only a pericosine-thiol conjugate was detected.
Pericosine A, spermine, and the model thiol compound 2-phenylethanethiol were prepared into 100 mM stock solutions in dimethyl sulfoxide (DMSO). 5 uL pericosine A and 5 uL spermine solutions were pre-mixed into 50 uL 50% propylene glycol to form a test composition. A piece of pig skin (1 inch×1 inch) was placed in a 10-cm ID petri dish. 5 uL of the thiol solution was dispensed onto the pig skin sample. The pericosine test composition was applied to the thiol-treated spot on the pig skin sample. The petri dish was covered and gently agitated to cause the thiol sample to mix with the pericosine test composition. After 10 min incubation, the solution on the pig skin was transferred using a pipet into an Eppendorf tube. The treated spot on the pig skin was extracted with 100 uL MeOH and the MeOH solution was combined with the solution in the Eppendorf tube. After mixing and centrifuging, the mixed solution was subjected to LCMS analysis.
As shown in FIG. 21(a), a major pericosine-thiol conjugated product was detected by the LCMS analysis in the solution removed from the pig skin.

Data set [3] has as its system EpiDerm™ reconstructed human epidermis tissues. As to the kind of experiment: Time course toxicity in EpiDerm tissues (MTT assay). The following applies: after 24 hours. The class given is cell-based. The method, then:
All substances are safe for greater than 24 hours, at even a very high dose of 500 μM. […] Viability of EpiDerm™ tissues was determined by MTT assay.
(In general: Tetrazolium assays rely on reduction of a dye to a coloured formazan, in cell work by metabolically active cells.)

The subject of the next data set is IL-1 alpha. As to the kind of experiment: IL-1 alpha cytokine response in media of EpiDerm tissues (ELISA). The class given is cell-based, human. Conditions: media of EpiDerm tissues after exposure. The method, then: IL-1 alpha secretion was not elevated in response to the test compounds, indicating a low potential for allergic reactions. […] Cytokine levels were determined by ELISA.
A general note: An ELISA detects its analyte on a solid surface through an enzyme-linked reagent.

In data set [4] the test system is fungi T1, T2, P1, P4, and A1. As to the kind of experiment: Antifungal test of 13 on fungal cultures preincubated / co-treated with 11. The class given is cell-based, Tolypocladium spp., Penicillium spp., Aspergillus niger.
Source text: as §1
This prompted us to ask the question what effect the addition of the shikimate analogue moiety had on the bioactivities of compounds 8, 9, 12, and the other nucleophilic substances that we tested. A panel of fungi including four Tolypocladium spp. (T1-T4), four Penicillium spp. (P1-P4) and Aspergillus niger (A1) were selected for assessment. […] To test the capacity of 11 to block the toxicity of 13 in real time, fungal cultures were preincubated with 11 and then treated with varying doses of 13. This regimen of preadministering 11 afforded up to an 8-fold decrease in the MIC of 13 (FIG. 15A). […] We had also noted that the addition of NaNO3 to the culture medium thoroughly abolished the formation of 10 and 11. […]
(§3) The effects of compounds on fungal growth of fungi were tested using the method described in the NCCLS M38-A guidelines with following modifications. […] After 72 h of incubation at 25° C., the optical densities of fungi were measured using a microplate reader (Infinite M200, Tecan Group Ltd.). […]

The subject of data set [5] is four Tolypocladium spp. (T1-T4), four Penicillium spp. (P1-P4) and Aspergillus niger (A1). Nature of the data set: Antifungal test (MIC) against a panel of test fungi. Format: cell-based. The following applies: against all of the fungal strains of the panel, 72 h, 25° C., MIC = >80% growth reduction, read-out: MIC (growth inhibition). The method, then: as §2, with “The actions of these metabolites serve to limit the deleterious effects of antibiotics/toxins against their microbial targets.” left out
as §3

≈ marks a conversion by molar mass, not a printed value. A value given as a limit tells only on which side of the number the result lay.

As for PF1140 [Compound 8], in the data set on Tolypocladium sp. T1, the “effect of supplemental NaNO3 in test medium on antifungal efficacy” value is given as “enhanced”; the “sensitivity of T1 to antifungal activity, normal versus NaNO3-supplemented medium” value is reported as “equally sensitive”; the “resistance of T1 culture” value is given as “increasingly resistant”.
Regarding pseudomaximiscin A [Compound 4], in data set [1], the stability in solvents result is listed as “stable for several days” and the “stability on prolonged storage” value is recorded as “modest levels of compound rearrangement”. Further, the “stability in DMSO-d6” value in data set [1] (dissolved in DMSO-d6) is on record as “Rapid isomerization”.
Turning to `COC(=O)C1=C[C@H](O)[C@H](O)[C@H](O)[C@H]1Cl` [Compound 11, (+)-pericosine A], the “neutralization of thiol on a surface (pig skin)” value in data set [2] (listed as Pericosine A) is “completely neutralize”; in data set [2] (listed as pericosine A), “quantitative consumption”.
Turning to pseudomaximiscin B [Compound 5], in data set [1], the stability in solvents entry was “stable for several days” and the “stability on prolonged storage” value is on record as “modest levels of compound rearrangement”.
With Triton X-100, the EpiDerm tissue outcome in data set [3] (1% control in the test with activating compound and fragrance) is “epidermal death”; in data set [3] (1% control, MTT assay), “epidermal death”. The IL-1 alpha secretion result in the data set with IL-1 alpha is listed as “significant response”.
As for `Cc1cc(C2CCCCC2)n(O)c(=O)c1` [Compound 13, ciclopirox], the “antifungal efficacy of 13 on co-treatment with 11” value in data set [4] (co-treatment by 11 plus 13, fungi T1, T2, P1, P4, A1) is given as “reduced”. In data set [4] (fungal cultures preincubated with 11, then treated with varying doses of 13), the “decrease in the MIC of 13” value is given as at most 8 fold. In the data set with Tolypocladium sp. T1, the “effect of supplemental NaNO3 in test medium on antifungal efficacy” value is “enhanced”; the “sensitivity of T1 to antifungal activity, normal versus NaNO3-supplemented medium” value was “equally sensitive”; the “resistance of T1 culture” value is given as “increasingly resistant”. The MIC (usually the lowest concentration that inhibits growth of the organism) in data set [5] lay in the range of 1 to 50 µM (≈ 0.207 to 10.4 µg/mL).

For the origin of these results see US20220144747A1, “SHIKIMATE ANALOGUES AND METHODS OF USE” (The Board of Regents of the University of Oklahoma, priority 2016, published 2022).
